# Assay results reported in patent EP4745135A1 (Gluetacs Therapeutics (Shanghai) Co., Ltd., priority 2023, dated 2025).
# Columns and labels:
# [1] = tested on: Human myeloid monocytic leukemia cell (MV-4-11); assay: Tumor cell proliferation inhibition (CellTiter-Meiluncell luminescent cell viability assay); settings: MV4-11, 96 h; for inhibition at 0.01 µM: read-out: Inhibition Rate at 10 nM (%); for inhibition at 0.5 µM: read-out: Inhibition Rate at 500 nM (%)
# [2] = tested on: GSPT1; assay: Western blot, degradation of substrate protein in hPBMCs; type: cell-based, Human
# [3] = target: T1, human Cereblon WT GST-tagged protein (Homo sapiens, UniProt Q96SW2); assay: CRBN-binding affinity, HTRF (CEREBLON BINDING kit); settings: for inhibition at 0.5 µM: read-out: Inhibition Rate at 0.5 µM (%); for inhibition at 2 µM: read-out: Inhibition Rate at 2 µM (%)
# T1 construct: purchased CISBIO 64BDCRBNPEH
# T1 sequence (Q96SW2 whole entry): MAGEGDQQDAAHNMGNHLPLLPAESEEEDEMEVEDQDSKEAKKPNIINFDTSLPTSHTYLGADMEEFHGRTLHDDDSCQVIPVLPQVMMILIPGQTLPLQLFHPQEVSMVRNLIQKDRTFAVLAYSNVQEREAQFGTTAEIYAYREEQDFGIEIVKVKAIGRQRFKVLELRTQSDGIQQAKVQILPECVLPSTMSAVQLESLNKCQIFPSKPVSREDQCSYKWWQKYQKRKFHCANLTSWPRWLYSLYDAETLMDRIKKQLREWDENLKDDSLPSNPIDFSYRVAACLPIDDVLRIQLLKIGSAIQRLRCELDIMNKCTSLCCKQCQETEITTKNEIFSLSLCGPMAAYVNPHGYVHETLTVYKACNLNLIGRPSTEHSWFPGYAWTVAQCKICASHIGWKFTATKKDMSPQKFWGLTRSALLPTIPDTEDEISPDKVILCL
# [4] = target: T2, IKZF2 (Homo sapiens, UniProt Q96SW2+Q9UKS7); assay: Western blot, degradation of substrate protein in hPBMCs; type: cell-based
# T2 construct: effects of the compounds of the present disclosure on the expression of target proteins in cells; endogenous in cells; host or cells: human PBMCs (Milecell Biotechnologies)
# T2 sequence (Q9UKS7 whole entry): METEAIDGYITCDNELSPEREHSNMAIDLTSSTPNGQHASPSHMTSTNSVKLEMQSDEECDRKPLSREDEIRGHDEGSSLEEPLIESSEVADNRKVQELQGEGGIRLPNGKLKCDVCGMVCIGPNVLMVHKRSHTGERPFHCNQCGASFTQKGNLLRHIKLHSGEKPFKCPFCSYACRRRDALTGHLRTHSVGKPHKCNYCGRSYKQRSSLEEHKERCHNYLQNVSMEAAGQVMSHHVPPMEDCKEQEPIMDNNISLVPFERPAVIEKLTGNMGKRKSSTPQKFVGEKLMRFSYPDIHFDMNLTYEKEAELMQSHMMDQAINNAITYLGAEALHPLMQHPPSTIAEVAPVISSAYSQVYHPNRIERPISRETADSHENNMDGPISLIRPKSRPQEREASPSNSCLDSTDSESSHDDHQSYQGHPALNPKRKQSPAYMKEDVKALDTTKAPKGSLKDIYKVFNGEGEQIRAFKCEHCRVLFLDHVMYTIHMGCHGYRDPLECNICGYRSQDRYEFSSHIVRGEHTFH
# T2 sequence (Q96SW2 whole entry): as the sequence (Q96SW2 whole entry) above
# T2 sequence (Q16531 whole entry partner): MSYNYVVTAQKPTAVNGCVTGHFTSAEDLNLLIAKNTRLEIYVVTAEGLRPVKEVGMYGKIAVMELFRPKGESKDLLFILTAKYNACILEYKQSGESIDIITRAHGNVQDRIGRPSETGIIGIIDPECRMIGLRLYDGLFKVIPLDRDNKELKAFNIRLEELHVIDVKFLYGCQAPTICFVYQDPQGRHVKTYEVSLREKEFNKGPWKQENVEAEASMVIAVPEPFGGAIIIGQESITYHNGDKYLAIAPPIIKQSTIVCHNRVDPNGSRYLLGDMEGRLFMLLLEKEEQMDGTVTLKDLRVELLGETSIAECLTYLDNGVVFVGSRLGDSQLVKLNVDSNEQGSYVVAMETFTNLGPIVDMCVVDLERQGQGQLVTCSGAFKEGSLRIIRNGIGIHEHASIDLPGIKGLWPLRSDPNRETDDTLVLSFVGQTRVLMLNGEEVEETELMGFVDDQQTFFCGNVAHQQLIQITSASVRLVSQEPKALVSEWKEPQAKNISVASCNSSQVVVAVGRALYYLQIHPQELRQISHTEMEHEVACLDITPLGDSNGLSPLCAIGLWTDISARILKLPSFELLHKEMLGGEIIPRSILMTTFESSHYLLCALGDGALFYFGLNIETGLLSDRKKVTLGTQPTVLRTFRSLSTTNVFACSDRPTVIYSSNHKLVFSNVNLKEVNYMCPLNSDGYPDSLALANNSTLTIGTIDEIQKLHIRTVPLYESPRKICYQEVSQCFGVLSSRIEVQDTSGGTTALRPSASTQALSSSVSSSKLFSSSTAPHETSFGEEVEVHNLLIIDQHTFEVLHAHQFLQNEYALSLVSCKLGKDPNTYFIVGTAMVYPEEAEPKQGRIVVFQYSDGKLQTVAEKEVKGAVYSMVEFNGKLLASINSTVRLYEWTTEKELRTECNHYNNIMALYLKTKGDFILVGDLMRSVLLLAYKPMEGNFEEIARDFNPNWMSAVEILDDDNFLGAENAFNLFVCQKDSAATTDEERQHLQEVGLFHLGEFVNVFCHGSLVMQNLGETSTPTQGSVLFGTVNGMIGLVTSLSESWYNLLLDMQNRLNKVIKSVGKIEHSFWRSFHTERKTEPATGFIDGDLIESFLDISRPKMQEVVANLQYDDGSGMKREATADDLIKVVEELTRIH
# [5] = target: T3, CK1α (Homo sapiens, UniProt P48729+Q96SW2); assay: as above; type: cell-based
# T3 construct: effects of the compounds of the present disclosure on the expression of target proteins in cells; endogenous in cells; host or cells: human PBMCs (Milecell Biotechnologies)
# T3 sequence (P48729 whole entry): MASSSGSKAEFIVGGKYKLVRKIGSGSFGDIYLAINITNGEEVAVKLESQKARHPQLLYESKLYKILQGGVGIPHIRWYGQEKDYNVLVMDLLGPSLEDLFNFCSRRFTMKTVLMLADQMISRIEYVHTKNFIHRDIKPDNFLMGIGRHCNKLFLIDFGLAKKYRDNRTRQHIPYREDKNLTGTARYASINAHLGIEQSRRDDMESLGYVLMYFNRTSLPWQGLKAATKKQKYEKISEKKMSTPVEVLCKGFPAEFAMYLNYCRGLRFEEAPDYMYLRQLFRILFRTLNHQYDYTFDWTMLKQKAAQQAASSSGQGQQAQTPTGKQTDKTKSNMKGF
# T3 sequence (Q96SW2 whole entry): as the sequence (Q96SW2 whole entry) above
# T3 sequence (Q16531 whole entry partner): as the sequence (Q16531 whole entry partner) above
# [6] = target: T4, WEE1 (Homo sapiens, UniProt P30291+Q96SW2); assay: as above; type: cell-based
# T4 construct: effects of the compounds of the present disclosure on the expression of target proteins in cells; endogenous in cells; host or cells: human PBMCs (Milecell Biotechnologies)
# T4 sequence (P30291 whole entry): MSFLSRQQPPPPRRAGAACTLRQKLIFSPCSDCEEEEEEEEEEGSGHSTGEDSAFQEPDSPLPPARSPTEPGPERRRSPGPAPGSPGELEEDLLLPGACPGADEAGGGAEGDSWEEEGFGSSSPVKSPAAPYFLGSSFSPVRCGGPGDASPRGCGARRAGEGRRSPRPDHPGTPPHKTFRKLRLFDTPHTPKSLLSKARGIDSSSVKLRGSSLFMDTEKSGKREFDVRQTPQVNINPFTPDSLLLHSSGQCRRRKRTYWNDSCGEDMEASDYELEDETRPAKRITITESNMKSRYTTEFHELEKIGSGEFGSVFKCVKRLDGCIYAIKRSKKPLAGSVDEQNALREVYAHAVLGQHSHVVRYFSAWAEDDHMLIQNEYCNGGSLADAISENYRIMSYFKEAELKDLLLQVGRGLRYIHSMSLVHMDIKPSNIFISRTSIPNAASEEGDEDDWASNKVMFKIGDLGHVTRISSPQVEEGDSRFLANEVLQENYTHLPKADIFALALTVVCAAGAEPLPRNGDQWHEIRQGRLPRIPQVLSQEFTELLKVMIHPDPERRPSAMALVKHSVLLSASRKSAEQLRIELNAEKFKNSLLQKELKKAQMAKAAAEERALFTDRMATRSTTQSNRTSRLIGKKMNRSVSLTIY
# T4 sequence (Q96SW2 whole entry): as the sequence (Q96SW2 whole entry) above
# T4 sequence (Q16531 whole entry partner): as the sequence (Q16531 whole entry partner) above
# [7] = target: T5, IKZF3 (Homo sapiens, UniProt Q96SW2+Q9UKT9); assay: as above; type: cell-based
# T5 construct: effects of the compounds of the present disclosure on the expression of target proteins in cells; endogenous in cells; host or cells: human PBMCs (Milecell Biotechnologies)
# T5 sequence (Q9UKT9 whole entry): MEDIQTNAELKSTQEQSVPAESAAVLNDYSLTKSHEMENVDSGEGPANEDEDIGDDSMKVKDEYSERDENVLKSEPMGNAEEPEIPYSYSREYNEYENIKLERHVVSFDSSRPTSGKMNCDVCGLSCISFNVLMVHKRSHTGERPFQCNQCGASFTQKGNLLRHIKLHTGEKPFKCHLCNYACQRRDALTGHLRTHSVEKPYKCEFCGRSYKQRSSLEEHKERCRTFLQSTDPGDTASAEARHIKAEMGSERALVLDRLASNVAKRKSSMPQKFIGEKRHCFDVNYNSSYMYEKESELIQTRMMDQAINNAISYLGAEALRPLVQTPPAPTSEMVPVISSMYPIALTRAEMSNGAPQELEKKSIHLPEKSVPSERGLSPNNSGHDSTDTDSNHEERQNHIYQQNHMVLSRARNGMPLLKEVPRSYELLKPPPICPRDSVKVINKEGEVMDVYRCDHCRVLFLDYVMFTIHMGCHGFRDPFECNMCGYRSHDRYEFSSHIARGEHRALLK
# T5 sequence (Q96SW2 whole entry): as the sequence (Q96SW2 whole entry) above
# T5 sequence (Q16531 whole entry partner): as the sequence (Q16531 whole entry partner) above
# [8] = target: T6, IKZF1 (Homo sapiens, UniProt Q13422+Q96SW2); assay: as above; type: cell-based
# T6 construct: effects of the compounds of the present disclosure on the expression of target proteins in cells; endogenous in cells; host or cells: human PBMCs (Milecell Biotechnologies)
# T6 sequence (Q13422 whole entry): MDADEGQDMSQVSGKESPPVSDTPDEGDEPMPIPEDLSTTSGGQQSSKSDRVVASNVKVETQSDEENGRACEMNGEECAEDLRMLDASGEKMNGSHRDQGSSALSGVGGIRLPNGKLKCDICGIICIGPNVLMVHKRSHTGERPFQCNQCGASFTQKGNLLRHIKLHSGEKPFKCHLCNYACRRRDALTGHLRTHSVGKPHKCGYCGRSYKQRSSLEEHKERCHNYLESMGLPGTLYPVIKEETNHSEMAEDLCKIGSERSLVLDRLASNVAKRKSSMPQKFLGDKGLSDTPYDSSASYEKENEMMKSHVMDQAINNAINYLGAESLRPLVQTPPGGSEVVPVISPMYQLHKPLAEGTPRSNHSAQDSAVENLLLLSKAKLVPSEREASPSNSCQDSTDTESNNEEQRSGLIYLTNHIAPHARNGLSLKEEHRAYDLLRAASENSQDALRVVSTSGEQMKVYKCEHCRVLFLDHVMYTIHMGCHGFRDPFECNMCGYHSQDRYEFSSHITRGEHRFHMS
# T6 sequence (Q96SW2 whole entry): as the sequence (Q96SW2 whole entry) above
# T6 sequence (Q16531 whole entry partner): as the sequence (Q16531 whole entry partner) above
# [9] = tested on: Human multiple myeloma cell (MM.1S); assay: Tumor cell proliferation inhibition (CellTiter-Meiluncell luminescent cell viability assay); settings: for inhibition at 0.01 µM / inhibition at 0.5 µM: Homo sapiens, MM1.S, 96 h; for inhibition at 0.01 µM: read-out: Inhibition Rate at 10 nM (%); for inhibition at 0.5 µM: read-out: Inhibition Rate at 500 nM (%); for Inhibition Rate at 500 nM (%): MM.1S, 96 hours
# [10] = 24 hours treatment, compounds at 50 nM and 500 nM (concentration behind the class not stated)
# [11] = Western blot, 24 hours of compound treatment, compounds tested at 50 nM and 500 nM (concentration for the table not stated)
Compound,inhibition at 0.01 µM [1],inhibition at 0.5 µM [1],"GSPT1 substrate protein remaining % [2, 10]",inhibition at 0.5 µM [3],inhibition at 2 µM [3],"IKZF2 substrate protein remaining % [4, 10]","CK1α substrate protein remaining % [5, 10]","Wee1 substrate protein remaining % [6, 10]","IKZF3 substrate protein remaining % [7, 10]","IKZF 1 substrate protein remaining % [8, 10]",inhibition at 0.01 µM [9],inhibition at 0.5 µM [9],"GSPT1 substrate protein remaining % [2, 11]","IKZF2 substrate protein remaining % [4, 11]","CK1α substrate protein remaining % [5, 11]","Wee1 substrate protein remaining % [6, 11]","IKZF3 substrate protein remaining % [7, 11]","IKZF 1 substrate protein remaining % [8, 11]",Inhibition Rate at 500 nM (%) [9]
"O=C1CCC(N2Cc3cc(CN4CCN(c5c[nH]c6ncccc56)CC4)ccc3C2=S)C(=O)N1 (stereo not drawn) [GT-09261, 3-(5-((4-(1H-pyrrolo[2,3-b]pyridin-3-yl)piperazin-1-yl)methyl)-1-thioxoisoindolin-2-yl)piperidine-2,6-dione]",40 to 60%,40 to 60%,A (0% ≤ substrate protein remaining % ≤ 80%),53 to 60%,80 to 100%,B (80%< substrate protein remaining %≤ 100%),B (80%< substrate protein remaining %≤ 100%),B (80%< substrate protein remaining %≤ 100%),B (80%< substrate protein remaining %≤ 100%),B (80%< substrate protein remaining %≤ 100%),40 to 50%,40 to 50%,–,–,–,–,–,–,–
"O=C1CCC(N2Cc3c(CN4CCC(c5ccon5)CC4)cccc3C2=S)C(=O)N1 (stereo not drawn) [GT-08817, 3-(4-((4-(isoxazol-3-yl)piperidin-1-yl)methyl)-1-thioxoisoindolin-2-yl)piperidine-2,6-dione]",40 to 60%,30 to 40%,–,53 to 60%,80 to 100%,–,–,–,–,–,20 to 30%,40 to 50%,B (80%< substrate protein remaining %≤ 100%),B (80%< substrate protein remaining %≤ 100%),B (80%< substrate protein remaining %≤ 100%),A (0% ≤ substrate protein remaining % ≤ 80%),B (80%< substrate protein remaining %≤ 100%),B (80%< substrate protein remaining %≤ 100%),–
"O=C1CCC(N2Cc3cc(CN4CCN(c5cccc(Cl)n5)CC4)ccc3C2=S)C(=O)N1 (stereo not drawn) [GT-09215, 3-(5-((4-(6-chloropyridin-2-yl)piperazin-1-yl)methyl)-1-thioxoisoindolin-2-yl)piperidine-2,6-dione]",40 to 60%,80 to 100%,–,60 to 80%,80 to 100%,–,–,–,–,–,30 to 40%,50 to 60%,A (0% ≤ substrate protein remaining % ≤ 80%),B (80%< substrate protein remaining %≤ 100%),B (80%< substrate protein remaining %≤ 100%),B (80%< substrate protein remaining %≤ 100%),B (80%< substrate protein remaining %≤ 100%),B (80%< substrate protein remaining %≤ 100%),–
"O=C1CCC(N2Cc3cc(CN4CCN(c5ccc(F)cc5)CC4)ccc3C2=S)C(=O)N1 (stereo not drawn) [GT-08240, 3-(5-((4-(4-fluorophenyl)piperazin-1-yl)methyl)-1-thioxoisoindolin-2-yl)piperidine-2,6-dione]",0 to 5%,40 to 60%,–,53 to 60%,80 to 100%,–,–,–,–,–,50 to 60%,50 to 60%,A (0% ≤ substrate protein remaining % ≤ 80%),B (80%< substrate protein remaining %≤ 100%),B (80%< substrate protein remaining %≤ 100%),B (80%< substrate protein remaining %≤ 100%),B (80%< substrate protein remaining %≤ 100%),B (80%< substrate protein remaining %≤ 100%),–
"O=C1CCC(N2Cc3c(CN4C[C@@H]5C[C@H]4CN5c4cccc(Cl)c4Cl)cccc3C2=S)C(=O)N1 (stereo partly drawn) [GT-08468, 3-(4-(((1S,4S)-5-(2,3-dichlorophenyl)-2,5-diazabicyclo[2.2.1]heptan-2-yl)methyl)-1-thioxoisoindolin-2-yl)piperidine-2,6-dione]",40 to 60%,40 to 60%,–,40 to 53%,80 to 100%,–,–,–,–,–,40 to 50%,50 to 60%,A (0% ≤ substrate protein remaining % ≤ 80%),B (80%< substrate protein remaining %≤ 100%),B (80%< substrate protein remaining %≤ 100%),B (80%< substrate protein remaining %≤ 100%),B (80%< substrate protein remaining %≤ 100%),B (80%< substrate protein remaining %≤ 100%),–
"O=C1CCC(N2Cc3cc(CN4C5CCC4CN(C(c4ccccc4)c4ccccc4)C5)ccc3C2=S)C(=O)N1 (stereo not drawn) [GT-07850, 3-(5-((3-benzhydryl-3,8-diazabicyclo[3.2.1]octan-8-yl)methyl)-1-thioxoisoindolin-2-yl)piperidine-2,6-dione]",40 to 60%,40 to 60%,–,40 to 53%,80 to 100%,–,–,–,–,–,30 to 40%,–,A (0% ≤ substrate protein remaining % ≤ 80%),A (0% ≤ substrate protein remaining % ≤ 80%),B (80%< substrate protein remaining %≤ 100%),A (0% ≤ substrate protein remaining % ≤ 80%),B (80%< substrate protein remaining %≤ 100%),B (80%< substrate protein remaining %≤ 100%),la7
"O=C1CCC(N2Cc3c(CN4CC=C(c5ncnc6sc(-c7ccccc7)cc56)CC4)cccc3C2=S)C(=O)N1 (stereo not drawn) [GT-08956, 3-(4-((4-(6-phenylthieno[2,3-d]pyrimidin-4-yl)-3,6-dihydropyridin-1(2H)-yl)methyl)-1-thioxoisoindolin-2-yl)piperidine-2,6-dione]",18 to 25%,40 to 60%,A (0% ≤ substrate protein remaining % ≤ 80%),53 to 60%,60 to 80%,B (80%< substrate protein remaining %≤ 100%),B (80%< substrate protein remaining %≤ 100%),A (0% ≤ substrate protein remaining % ≤ 80%),B (80%< substrate protein remaining %≤ 100%),B (80%< substrate protein remaining %≤ 100%),20 to 30%,40 to 50%,–,–,–,–,–,–,–
"O=C1CCC(N2Cc3cc(CN4CCN(c5c(Cl)cncc5Br)CC4)ccc3C2=S)C(=O)N1 (stereo not drawn) [GT-09264, 3-(5-((4-(3-bromo-5-chloropyridin-4-yl)piperazin-1-yl)methyl)-1-thioxoisoindolin-2-yl)piperidine-2,6-dione]",30 to 40%,40 to 60%,A (0% ≤ substrate protein remaining % ≤ 80%),80 to 100%,80 to 100%,B (80%< substrate protein remaining %≤ 100%),B (80%< substrate protein remaining %≤ 100%),B (80%< substrate protein remaining %≤ 100%),B (80%< substrate protein remaining %≤ 100%),B (80%< substrate protein remaining %≤ 100%),30 to 40%,40 to 50%,–,–,–,–,–,–,–
"Cc1ccsc1C1CCN(Cc2ccc3c(c2)CN(C2CCC(=O)NC2=O)C3=S)CC1 (stereo not drawn) [GT-08323, 3-(5-((4-(3-methylthiophen-2-yl)piperidin-1-yl)methyl)-1-thioxoisoindolin-2-yl)piperidine-2,6-dione]",-5 to 0%,40 to 60%,A (0% ≤ substrate protein remaining % ≤ 80%),40 to 53%,80 to 100%,B (80%< substrate protein remaining %≤ 100%),A (0% ≤ substrate protein remaining % ≤ 80%),B (80%< substrate protein remaining %≤ 100%),B (80%< substrate protein remaining %≤ 100%),B (80%< substrate protein remaining %≤ 100%),0 to 5%,–,–,–,–,–,–,–,la7
